Assay results: patent US5985927A, “Medicaments for the selective treatment of tumor tissues” (priority 1995, dated 1999)

Legend:
[1] = system: small-cell lung tumor (LXFS 650); assay: tumor growth of implanted small-cell lung tumor (LXFS 650) in nude mice; assay type: in vivo; details: tail vein injection, 4 consecutive days, FIG. 4
Text: The three compounds mentioned above by way of example have likewise been investigated for their in vivo suitability in an animal model. Nude mice are chosen as animal model, into which it is possible to implant various human tumors. This makes it possible to investigate the therapeutic efficacy of the substances under defined reproducible conditions. An animal experiment of this type is documented in FIG. 4. A routine method which is conventional in the prior art and is outlined below is used.
A small-cell lung tumor (LXFS 650) whose extra-cellular pH of about 6.9 is close to the physiological pH of 7.2-7.3 is implanted into the nude mice. The therapeutic substance used is, as in FIG. 1, 2,4-di-hydroxybenzoic acid (substance (1)). 3-4 weeks after implantation of the tumor, 15 mice with tumors 5-7 mm in diameter are divided into 3 groups: the first group of 5 serves as control group without therapy, and the substance (1) is injected into the tail vein in a concentration of 200 mg/kg/day in the second group of 5 and in a concentration of 400 mg/kg/day in the third group of 5. In the present experiment, 4 injections into the tail vein were carried out on 4 consecutive days. […] The tumor volumes were determined on days 7, 10, 14 and 17.

[2] = system: K-562 cancer cells; assay: toxicity effect on K-562 cancer cells as a function of extracellular pH (FACScan and XTT-ELISA); assay type: cell-based
Text: Thus, the toxicity properties of a substance which comes under consideration can be determined experimentally by the FACScan and the XTT-ELISA techniques. Both methods are known in the prior art. […] FACS and XTT techniques can likewise be used to investigate the toxicity of the substances for mononuclear blood cells (MNCs). The proportion of dead cells is detected in the FACS technique by propidium iodide staining, and in the XTT method by conversion of XTT into formazan by mitochondrial dehydrogenase.
To detect pH-sensitive toxic substances, selected substances are allowed to act at various predetermined pH values, for example at pH 5.5, 6.0, 6.5, 7.0 and 7.5, both on tumor cell lines and on MNCs, for example for 4 hours and 24 hours, in order thereafter to measure the number of killed cancer cells or MNCs. Control measurements without addition of pH-sensitive substances are carried out in parallel with this.
The activity of the 4-succinic ester of 2,4-dihydroxybenzoic acid, of trans-3,4-difluorocinnamic acid and of 2,4-dinitrophenol has been investigated. Used for this purpose were the methods of the FACScan and ELISA techniques described above. […] FIG. 2A depicts the effect of trans-3,4-difluorocinnamic acid on K-562 cells. […] FIG. 2B depicts the effect of the same compound on MNCs.

[3] = system: mononuclear blood cells (MNCs); assay: toxicity on mononuclear blood cells (MNCs) as a function of extracellular pH (FACScan and XTT-ELISA); assay type: cell-based; details: extracellular pH in the range from 7.2 to 7.4; FIG. 1B
Text: A skilled person is able to find, with the aid of the above information and using his general expert knowledge and a few simple tests, as described hereinafter, compounds which are used according to the invention as medicinal substance. Thus, the toxicity properties of a substance which comes under consideration can be determined experimentally by the FACScan and the XTT-ELISA techniques. Both methods are known in the prior art. It is possible to investigate suspended cancer cell lines such as, for example, K-562, Raji or Daudi by both techniques, but adherent cancer cell lines only by the XTT-ELISA technique. FACS and XTT techniques can likewise be used to investigate the toxicity of the substances for mononuclear blood cells (MNCs). The proportion of dead cells is detected in the FACS technique by propidium iodide staining, and in the XTT method by conversion of XTT into formazan by mitochondrial dehydrogenase. The methods are described, for example, in Tumor-Biologie 1994, 15, 304 and in the biochemistry catalog of Boehringer Mannheim, Germany 0392.C 73.3.1465554 1 CB, Cat. No. 1465 015. […]

[4] = K-562 cancer cells, extracellular pH, FIG. 1A

O=C(O)c1ccc(O)cc1O [substance (1), 2,4-di-hydroxybenzoic acid]
effect on tumor growth ([1]; 200 mg/kg/day, only on day 10): onset of a slight effect only on day 10 | tumor growth ([1]; 400 mg/kg/day, after day 7 and up to day 10): cessation of growth | tumor growth after end of therapy ([1]; 400 mg/kg/day, after day 10, therapy not continued further): the tumor starts to grow again

O=C(O)CCC(=O)Oc1ccc(C(=O)O)c(O)c1 [4-succinic ester of 2,4-dihydroxybenzoic acid]
pH of maximum toxicity effect on K-562 cells [2, 4]: 5.7 | pH of onset of toxicity effect on K-562 cells [2, 4]: ~6.5 | toxicity on MNCs [3]: Negligible toxicity

O=C(O)/C=C/c1ccc(F)c(F)c1 [trans-3,4-difluorocinnamic acid]
extracellular pH until which the cytotoxic effect on K-562 cells is negligible ([2]; cytotoxic effect negligible until the extracellular pH is below this value, K-562 cells, FIG. 2A): below 6.5
